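Interpolation was linear, between the two tested concentrations surrounding the appropriate level; five concentrations were tested over 48 hours in 96-well plates. GI50 marks 50% less growth. TGI: concentration producing complete growth inhibition.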
Tests used:
Assay in all cases: inhibition of tumour cell growth, NCI panel, 48 h
SW-620 colon = test system: SW-620 colon
SNB-75 CNS = test system: SNB-75 CNS
PC-3 prostate = test system: PC-3 prostate
CCRF-CEM leukemia = test system: CCRF-CEM leukemia
SR leukemia = test system: SR leukemia
MOLT-4 leukemia = test system: MOLT-4 leukemia
BT-549 breast = test system: BT-549 breast
HCT-116 colon = test system: HCT-116 colon
RXF 393 renal = test system: RXF 393 renal
LOX IMVI melanoma = test system: LOX IMVI melanoma
KM12 colon = test system: KM12 colon
UACC-257 melanoma = test system: UACC-257 melanoma
OVCAR-4 ovarian = test system: OVCAR-4 ovarian
MDA-MB-435 = test system: MDA-MB-435
SF-295 CNS = test system: SF-295 CNS
K-562 leukemia = test system: K-562 leukemia
MCF7 breast = test system: MCF7 breast
OVCAR-5 ovarian = test system: OVCAR-5 ovarian
UO-31 renal = test system: UO-31 renal
NCI-H522 lung = test system: NCI-H522 lung
SN12C renal = test system: SN12C renal
HL-60(TB) leukemia = test system: HL-60(TB) leukemia
A498 renal = test system: A498 renal
HOP-62 NSCLC = test system: HOP-62 NSCLC
UACC-62 melanoma = test system: UACC-62 melanoma
SK-MEL-2 melanoma = test system: SK-MEL-2 melanoma
SF-268 CNS = test system: SF-268 CNS
MALME-3M melanoma = test system: MALME-3M melanoma
T-47D breast = test system: T-47D breast
HT29 colon = test system: HT29 colon
HOP-92 NSCLC = test system: HOP-92 NSCLC
DU-145 prostate = test system: DU-145 prostate
M14 melanoma = test system: M14 melanoma
OVCAR-8 ovarian = test system: OVCAR-8 ovarian
HCT-15 colon = test system: HCT-15 colon
COLO 205 colon = test system: COLO 205 colon
U251 CNS = test system: U251 CNS
SF-539 CNS = test system: SF-539 CNS
EKVX NSCLC = test system: EKVX NSCLC
SNB-19 CNS = test system: SNB-19 CNS
786-0 renal = test system: 786-0 renal
NCI-H460 lung = test system: NCI-H460 lung
RPMI-8226 leukemia = test system: RPMI-8226 leukemia
NCI-H23 lung = test system: NCI-H23 lung
SK-MEL-5 melanoma = test system: SK-MEL-5 melanoma
HCC-2998 colon = test system: HCC-2998 colon
A549 NSCLC = test system: A549 NSCLC
SK-OV-3 ovarian = test system: SK-OV-3 ovarian
TK-10 renal = test system: TK-10 renal
NCI/ADR-RES ovarian = test system: NCI/ADR-RES ovarian
ACHN renal = test system: ACHN renal
HS 578T breast = test system: HS 578T breast
MDA-MB-231 breast = test system: MDA-MB-231 breast
SK-MEL-28 melanoma = test system: SK-MEL-28 melanoma
OVCAR-3 ovarian = test system: OVCAR-3 ovarian
NCI-H226 lung = test system: NCI-H226 lung

COc1ccc(/C=C/C(=O)c2ccc(NC(=O)CSc3nnc(-c4ccc(OC)c(OC)c4)n3-c3ccccc3)cc2)cc1 was tested, and the GI50 (SW-620 colon) was 1.96 µM, the TGI (SW-620 colon) was 4.07 µM and the GI50 (SNB-75 CNS) was 2.6 µM. The TGI (SNB-75 CNS) was 14.9 µM, the GI50 (PC-3 prostate) was 3.09 µM and the TGI (PC-3 prostate) was 13.8 µM. It also gave a GI50 (CCRF-CEM leukemia) of 1.85 µM, a TGI (CCRF-CEM leukemia) of 5.36 µM and a GI50 (SR leukemia) of 0.724 µM. It also gave a TGI (SR leukemia) of 2.78 µM, a GI50 (MOLT-4 leukemia) of 2.26 µM and a TGI (MOLT-4 leukemia) of 9.14 µM. It also gave a GI50 (BT-549 breast) of 1.6 µM, a TGI (BT-549 breast) of 3.49 µM and a GI50 (HCT-116 colon) of 1.17 µM. The TGI (HCT-116 colon) was 2.66 µM, the GI50 (RXF 393 renal) was 1.66 µM and the TGI (RXF 393 renal) was 3.35 µM. For the same compound, the GI50 (LOX IMVI melanoma) was 1.46 µM, the TGI (LOX IMVI melanoma) was 2.99 µM and the GI50 (KM12 colon) was 2.24 µM. For the same compound, the TGI (KM12 colon) was 5.54 µM, the GI50 (UACC-257 melanoma) was 12 µM and the TGI (UACC-257 melanoma) was 24.4 µM. For the same compound, the GI50 (OVCAR-4 ovarian) was 1.96 µM, the TGI (OVCAR-4 ovarian) was 4.75 µM and the GI50 (MDA-MB-435) was 1.91 µM. For the same compound, the TGI (MDA-MB-435) was 4.13 µM, the GI50 (SF-295 CNS) was 12.2 µM and the TGI (SF-295 CNS) was 25.9 µM. The GI50 (K-562 leukemia) was 3.02 µM, the TGI (K-562 leukemia) was 10.8 µM and the GI50 (MCF7 breast) was 1.41 µM. It also gave a TGI (MCF7 breast) of 5.14 µM, a GI50 (OVCAR-5 ovarian) of 14 µM and a TGI (OVCAR-5 ovarian) of 28.3 µM. The GI50 (UO-31 renal) was 1.48 µM, the TGI (UO-31 renal) was 3.84 µM and the GI50 (NCI-H522 lung) was 1.48 µM. For the same compound, the TGI (NCI-H522 lung) was 3.17 µM, the GI50 (SN12C renal) was 2.25 µM and the TGI (SN12C renal) was 7.09 µM. It also gave a GI50 (HL-60(TB) leukemia) of 2.57 µM, a TGI (HL-60(TB) leukemia) of 11.8 µM and a GI50 (A498 renal) of 14.7 µM. For the same compound, the TGI (A498 renal) was 28 µM, the GI50 (HOP-62 NSCLC) was 4.36 µM and the TGI (HOP-62 NSCLC) was 19.4 µM. The GI50 (UACC-62 melanoma) was 2.26 µM, the TGI (UACC-62 melanoma) was 6.59 µM and the GI50 (SK-MEL-2 melanoma) was 5.03 µM. The TGI (SK-MEL-2 melanoma) was 23.3 µM, the GI50 (SF-268 CNS) was 1.89 µM and the TGI (SF-268 CNS) was 4.88 µM. For the same compound, the GI50 (MALME-3M melanoma) was 1.75 µM, the TGI (MALME-3M melanoma) was 3.49 µM and the GI50 (T-47D breast) was 2.54 µM. The TGI (T-47D breast) was 12.4 µM, the GI50 (HT29 colon) was 1.86 µM and the TGI (HT29 colon) was 3.58 µM. For the same compound, the GI50 (HOP-92 NSCLC) was 1.56 µM, the TGI (HOP-92 NSCLC) was 3.45 µM and the GI50 (DU-145 prostate) was 3.21 µM. It also gave a TGI (DU-145 prostate) of 10.8 µM, a GI50 (M14 melanoma) of 1.8 µM and a TGI (M14 melanoma) of 3.9 µM. For the same compound, the GI50 (OVCAR-8 ovarian) was 3.09 µM, the TGI (OVCAR-8 ovarian) was 14.1 µM and the GI50 (HCT-15 colon) was 1.8 µM. For the same compound, the TGI (HCT-15 colon) was 4.27 µM, the GI50 (COLO 205 colon) was 2.1 µM and the TGI (COLO 205 colon) was 4.56 µM. For the same compound, the GI50 (U251 CNS) was 1.75 µM, the TGI (U251 CNS) was 3.51 µM and the GI50 (SF-539 CNS) was 1.8 µM. It also gave a TGI (SF-539 CNS) of 3.31 µM, a GI50 (EKVX NSCLC) of 3.05 µM and a TGI (EKVX NSCLC) of 14.6 µM. It also gave a GI50 (SNB-19 CNS) of 3.5 µM, a TGI (SNB-19 CNS) of 16.9 µM and a GI50 (786-0 renal) of 1.78 µM. For the same compound, the TGI (786-0 renal) was 3.66 µM, the GI50 (NCI-H460 lung) was 5.05 µM and the TGI (NCI-H460 lung) was 18 µM. It also gave a GI50 (RPMI-8226 leukemia) of 1.72 µM, a TGI (RPMI-8226 leukemia) of 4.41 µM and a GI50 (NCI-H23 lung) of 1.8 µM. It also gave a TGI (NCI-H23 lung) of 4.01 µM, a GI50 (SK-MEL-5 melanoma) of 1.81 µM and a TGI (SK-MEL-5 melanoma) of 4.12 µM. The GI50 (HCC-2998 colon) was 2.97 µM, the TGI (HCC-2998 colon) was 10.1 µM and the GI50 (A549 NSCLC) was 14.9 µM. The TGI (A549 NSCLC) was 31.7 µM, the GI50 (SK-OV-3 ovarian) was 13.1 µM and the TGI (SK-OV-3 ovarian) was 26.3 µM. For the same compound, the GI50 (TK-10 renal) was 14.6 µM, the TGI (TK-10 renal) was 28.1 µM and the GI50 (NCI/ADR-RES ovarian) was 2.66 µM. The TGI (NCI/ADR-RES ovarian) was greater than 100 µM, the GI50 (ACHN renal) was 2.38 µM and the TGI (ACHN renal) was 6.1 µM. For the same compound, the GI50 (HS 578T breast) was 7.68 µM, the TGI (HS 578T breast) was 54.3 µM and the GI50 (MDA-MB-231 breast) was 1.73 µM. The TGI (MDA-MB-231 breast) was 3.65 µM, the GI50 (SK-MEL-28 melanoma) was 5.78 µM and the TGI (SK-MEL-28 melanoma) was 19.2 µM. The GI50 (OVCAR-3 ovarian) was 1.72 µM, the TGI (OVCAR-3 ovarian) was 3.26 µM and the GI50 (NCI-H226 lung) was 3.92 µM. For the same compound, the TGI (NCI-H226 lung) was 24.3 µM.

Source: PubChem BioAssay (NCI)
